Among the data in ChEMBL document CHEMBL2074083, “Functional characterization of SLCO1B1 (OATP-C) variants, SLCO1B1*5, SLCO1B1*15 and SLCO1B1*15+C1007G, by using transient expression systems of HeLa and HEK293 cells” (Pharmacogenet Genomics, 2005) are Km and Activity values, retold here.

Holding throughout (assay type): functional, cell-based
One data set deals with T1, OATP1B1 (Homo sapiens, UniProt Q9Y6L6).
T1 sequence (Q9Y6L6 whole entry): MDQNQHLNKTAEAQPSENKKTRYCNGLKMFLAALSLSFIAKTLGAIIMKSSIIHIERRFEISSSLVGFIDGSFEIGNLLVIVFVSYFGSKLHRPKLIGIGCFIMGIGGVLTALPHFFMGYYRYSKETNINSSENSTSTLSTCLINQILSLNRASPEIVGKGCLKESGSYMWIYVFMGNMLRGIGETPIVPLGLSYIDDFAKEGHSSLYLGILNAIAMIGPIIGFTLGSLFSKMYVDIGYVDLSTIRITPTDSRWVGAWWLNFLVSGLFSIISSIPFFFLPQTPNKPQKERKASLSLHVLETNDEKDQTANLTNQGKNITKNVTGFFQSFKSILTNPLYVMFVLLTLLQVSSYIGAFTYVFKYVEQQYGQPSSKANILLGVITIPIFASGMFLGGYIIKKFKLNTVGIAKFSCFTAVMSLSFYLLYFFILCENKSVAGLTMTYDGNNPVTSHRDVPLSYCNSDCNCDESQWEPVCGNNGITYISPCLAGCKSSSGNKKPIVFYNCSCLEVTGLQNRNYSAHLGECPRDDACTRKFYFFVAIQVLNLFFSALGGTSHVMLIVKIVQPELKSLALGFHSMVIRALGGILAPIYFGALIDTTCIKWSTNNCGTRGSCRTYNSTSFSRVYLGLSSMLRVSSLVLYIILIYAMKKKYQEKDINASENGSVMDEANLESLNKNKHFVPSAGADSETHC
The experiment in a line: (§1) TP_TRANSPORTER: uptake in OATP1B1-expressing HEK293 cells. The following applies: HEK293 cells that express OATP1B1.

For data set [1], the target named is T2, Solute carrier organic anion transporter family member 1B1 (Homo sapiens, UniProt Q9Y6L6).
T2 sequence (Q9Y6L6 whole entry): T1 sequence (Q9Y6L6 whole entry)
The data set is described as §1. The following applies: hek293.

Substrate in data set [2]: CC[C@H](C)C(=O)O[C@H]1C[C@H](O)C=C2C=C[C@H](C)[C@H](CC[C@@H](O)C[C@@H](O)CC(=O)O)[C@H]21
Described as §1.

Take `CC(C)c1c(C(=O)Nc2ccccc2)c(-c2ccccc2)c(-c2ccc(F)cc2)n1CC[C@@H](O)C[C@@H](O)CC(=O)O` [ATORVASTATIN]: the Km at OATP1B1 was found to be 12.4 µM. Consider `COCc1c(C(C)C)nc(C(C)C)c(/C=C/[C@@H](O)C[C@@H](O)CC(=O)O)c1-c1ccc(F)cc1` [CERIVASTATIN], for which, in data set [1], the Activity result is “substrate [(+)]”.

B1: Solute carrier organic anion transporter family member 1B1 (Homo sapiens) (protein)
chain: T1 sequence (Q9Y6L6 whole entry)
B1: the Km in data set [2] turned out to be 85.7 µM.
